In ChEMBL document CHEMBL2331361, “Sulfonylpiperidines as novel, antibacterial inhibitors of Gram-positive thymidylate kinase (TMK)” (Bioorg Med Chem Lett, 2013):
≈ marks a conversion by molar mass, not a printed value. Each block holds one molecule with its values, some of them ahead of it.

How the values were obtained:
Streptococcus pneumoniae = experiment: Antimicrobial activity against Streptococcus pneumoniae ARC548; type: functional
[1] = Inhibition of Staphylococcus aureus thymidylate kinase
Staphylococcus aureus [2] = experiment: Antimicrobial activity against methicillin- and quinolone-sensitive Staphylococcus aureus ARC516; type: functional
[3] = Inhibition of Streptococcus pneumoniae thymidylate kinase
Staphylococcus aureus [4] = experiment: Antimicrobial activity against methicillin- and quinolone-resistant Staphylococcus aureus ARC517; type: functional
[5] = Distribution co-efficient, log D of the compound; conditions: octanol/water
[6] = Cytotoxicity against sheep erythrocytes assessed hemolysis; type: cell-based, Ovis aries; conditions: erythrocyte
Pseudomonas aeruginosa = experiment: Antimicrobial activity against Pseudomonas aeruginosa ARC545; type: functional
[7] = Inhibition of Escherichia coli thymidylate kinase
Cytochrome P450 2C19 = Cytochrome P450 2C19 (Homo sapiens, UniProt P33261); experiment: Inhibition of CYP2C19 (unknown origin); type: ADME
[8] = Intrinsic clearance in rat hepatocytes assessed per million cells; type: ADME, cell-based, Hepatocyte; conditions: read-out: CLH
[9] = biological target: Voltage-gated inwardly rectifying potassium channel KCNH2 (Homo sapiens, UniProt Q12809); experiment: Inhibition of human ERG
Streptococcus agalactiae = experiment: Antimicrobial activity against Streptococcus agalactiae; type: functional
[10] = system: Staphylococcus epidermidis; experiment: Antimicrobial activity against Staphylococcus epidermidis ARC323; type: functional
[11] = Equilibrium solubility of the compound at pH 7.4; type: physicochemical; conditions: buffer
Cytochrome P450 2C9 = Cytochrome P450 2C9 (Homo sapiens, UniProt P11712); experiment: Inhibition of CYP2C9 (unknown origin); type: ADME
[12] = system: Staphylococcus lugdunensis; experiment: Antimicrobial activity against Staphylococcus lugdunensis; type: functional
Cytochrome P450 3A4 = Cytochrome P450 3A4 (Homo sapiens, UniProt P08684); experiment: Inhibition of CYP3A4 (unknown origin); type: ADME
Cytochrome P450 2D6 = Cytochrome P450 2D6 (Homo sapiens, UniProt P10635); experiment: Inhibition of CYP2D6 (unknown origin); type: ADME
[13] = system: Staphylococcus haemolyticus; experiment: Antimicrobial activity against Staphylococcus haemolyticus; type: functional
Klebsiella pneumoniae = experiment: Antimicrobial activity against Klebsiella pneumoniae ARC1865; type: functional
Cytochrome P450 1A2 = Cytochrome P450 1A2 (Homo sapiens, UniProt P05177); experiment: Inhibition of CYP1A2 (unknown origin); type: ADME
Haemophilus influenzae = experiment: Antimicrobial activity against Haemophilus influenzae ARC446; type: functional
Streptococcus pyogenes = experiment: Antimicrobial activity against Streptococcus pyogenes ARC838; type: functional
Enterococcus faecium = experiment: Antimicrobial activity against linezolid-resistant Enterococcus faecium ARC1239; type: functional
[14] = Cytotoxicity against human A549 cells; type: cell-based; conditions: read-out: MIC
Enterococcus faecalis = experiment: Antimicrobial activity against vancomycin-resistant Enterococcus faecalis ARC1618; type: functional
[15] = Intrinsic clearance in rat liver microsomes; type: ADME, Microsome; conditions: read-out: CLH
Plasma = experiment: Unbound fraction in human plasma; type: ADME, cell-free
Escherichia coli = experiment: Antimicrobial activity against Escherichia coli ARC523; type: functional
Thymidylate kinase = Thymidylate kinase (Homo sapiens, UniProt P23919); experiment: Inhibition of human thymidylate kinase
Candida albicans = experiment: Antimicrobial activity against Candida albicans; type: functional

Cytochrome P450 2C9, sequence (P11712 whole entry): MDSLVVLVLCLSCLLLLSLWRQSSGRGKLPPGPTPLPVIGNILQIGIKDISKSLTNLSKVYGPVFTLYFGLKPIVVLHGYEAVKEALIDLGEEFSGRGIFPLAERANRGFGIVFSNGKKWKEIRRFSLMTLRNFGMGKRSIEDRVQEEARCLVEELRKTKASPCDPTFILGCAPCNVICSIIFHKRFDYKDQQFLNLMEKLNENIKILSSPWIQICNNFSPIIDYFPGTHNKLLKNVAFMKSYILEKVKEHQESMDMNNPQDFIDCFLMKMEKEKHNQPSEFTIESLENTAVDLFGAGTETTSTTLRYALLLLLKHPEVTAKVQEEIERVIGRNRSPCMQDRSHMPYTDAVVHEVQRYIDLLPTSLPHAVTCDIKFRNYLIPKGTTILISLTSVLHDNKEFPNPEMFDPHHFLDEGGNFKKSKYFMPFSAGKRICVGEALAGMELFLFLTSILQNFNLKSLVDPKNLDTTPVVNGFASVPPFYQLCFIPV
Voltage-gated inwardly rectifying potassium channel KCNH2, sequence (Q12809 whole entry): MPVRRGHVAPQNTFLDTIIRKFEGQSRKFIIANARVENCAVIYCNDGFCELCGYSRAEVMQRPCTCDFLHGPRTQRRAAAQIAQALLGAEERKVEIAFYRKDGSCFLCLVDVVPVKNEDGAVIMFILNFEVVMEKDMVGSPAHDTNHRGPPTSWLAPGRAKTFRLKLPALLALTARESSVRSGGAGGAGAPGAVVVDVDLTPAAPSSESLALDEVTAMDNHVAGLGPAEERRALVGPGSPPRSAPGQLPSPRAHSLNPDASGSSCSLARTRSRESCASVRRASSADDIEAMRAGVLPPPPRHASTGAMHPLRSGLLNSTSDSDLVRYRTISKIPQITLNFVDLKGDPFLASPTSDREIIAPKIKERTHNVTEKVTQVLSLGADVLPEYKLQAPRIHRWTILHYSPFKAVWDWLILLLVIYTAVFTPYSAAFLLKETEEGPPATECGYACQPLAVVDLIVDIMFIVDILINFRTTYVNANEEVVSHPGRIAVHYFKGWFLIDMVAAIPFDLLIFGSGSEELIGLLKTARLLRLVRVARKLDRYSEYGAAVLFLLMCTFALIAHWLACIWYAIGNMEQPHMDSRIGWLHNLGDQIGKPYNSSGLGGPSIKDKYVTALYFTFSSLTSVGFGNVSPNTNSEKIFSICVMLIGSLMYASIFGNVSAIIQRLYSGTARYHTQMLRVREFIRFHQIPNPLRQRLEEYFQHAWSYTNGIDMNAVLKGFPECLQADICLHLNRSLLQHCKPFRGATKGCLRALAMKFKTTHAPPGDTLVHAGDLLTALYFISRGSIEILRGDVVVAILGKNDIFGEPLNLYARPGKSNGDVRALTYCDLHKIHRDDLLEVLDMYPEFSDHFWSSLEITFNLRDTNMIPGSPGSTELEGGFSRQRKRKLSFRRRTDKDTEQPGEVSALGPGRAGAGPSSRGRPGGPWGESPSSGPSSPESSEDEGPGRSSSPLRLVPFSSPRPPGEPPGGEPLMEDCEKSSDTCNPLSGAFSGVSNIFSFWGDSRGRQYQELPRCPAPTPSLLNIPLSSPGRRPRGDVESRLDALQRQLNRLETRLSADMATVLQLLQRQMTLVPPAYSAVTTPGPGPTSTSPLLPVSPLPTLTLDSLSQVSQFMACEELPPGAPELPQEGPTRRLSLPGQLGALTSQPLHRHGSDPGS
Cytochrome P450 2D6, sequence (P10635 whole entry): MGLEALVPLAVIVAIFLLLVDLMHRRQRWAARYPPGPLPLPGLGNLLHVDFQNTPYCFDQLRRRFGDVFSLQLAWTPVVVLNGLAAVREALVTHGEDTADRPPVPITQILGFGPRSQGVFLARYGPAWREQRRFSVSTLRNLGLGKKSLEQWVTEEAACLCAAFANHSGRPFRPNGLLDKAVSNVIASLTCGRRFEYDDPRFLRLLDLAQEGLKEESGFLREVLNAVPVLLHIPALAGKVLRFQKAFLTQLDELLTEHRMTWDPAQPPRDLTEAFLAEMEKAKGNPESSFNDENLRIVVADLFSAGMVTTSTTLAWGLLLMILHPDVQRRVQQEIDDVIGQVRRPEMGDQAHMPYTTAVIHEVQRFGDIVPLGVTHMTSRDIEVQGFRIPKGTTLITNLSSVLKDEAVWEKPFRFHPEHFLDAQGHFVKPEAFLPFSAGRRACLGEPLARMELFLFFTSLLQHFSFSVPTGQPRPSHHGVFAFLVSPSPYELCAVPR
Cytochrome P450 1A2, sequence (P05177 whole entry): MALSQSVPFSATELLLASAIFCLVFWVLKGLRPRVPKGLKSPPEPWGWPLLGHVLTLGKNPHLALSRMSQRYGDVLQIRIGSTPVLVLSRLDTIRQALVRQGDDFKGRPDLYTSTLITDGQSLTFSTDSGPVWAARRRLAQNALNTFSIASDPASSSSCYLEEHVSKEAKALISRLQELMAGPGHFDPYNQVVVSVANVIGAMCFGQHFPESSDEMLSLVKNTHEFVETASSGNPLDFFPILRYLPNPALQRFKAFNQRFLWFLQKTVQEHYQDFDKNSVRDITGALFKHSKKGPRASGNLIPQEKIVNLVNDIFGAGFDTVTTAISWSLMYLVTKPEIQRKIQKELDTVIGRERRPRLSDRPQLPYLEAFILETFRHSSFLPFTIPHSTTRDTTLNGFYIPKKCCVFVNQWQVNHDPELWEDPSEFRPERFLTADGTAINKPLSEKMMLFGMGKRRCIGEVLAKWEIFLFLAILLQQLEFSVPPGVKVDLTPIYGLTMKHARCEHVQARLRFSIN
Cytochrome P450 2C19, sequence (P33261 whole entry): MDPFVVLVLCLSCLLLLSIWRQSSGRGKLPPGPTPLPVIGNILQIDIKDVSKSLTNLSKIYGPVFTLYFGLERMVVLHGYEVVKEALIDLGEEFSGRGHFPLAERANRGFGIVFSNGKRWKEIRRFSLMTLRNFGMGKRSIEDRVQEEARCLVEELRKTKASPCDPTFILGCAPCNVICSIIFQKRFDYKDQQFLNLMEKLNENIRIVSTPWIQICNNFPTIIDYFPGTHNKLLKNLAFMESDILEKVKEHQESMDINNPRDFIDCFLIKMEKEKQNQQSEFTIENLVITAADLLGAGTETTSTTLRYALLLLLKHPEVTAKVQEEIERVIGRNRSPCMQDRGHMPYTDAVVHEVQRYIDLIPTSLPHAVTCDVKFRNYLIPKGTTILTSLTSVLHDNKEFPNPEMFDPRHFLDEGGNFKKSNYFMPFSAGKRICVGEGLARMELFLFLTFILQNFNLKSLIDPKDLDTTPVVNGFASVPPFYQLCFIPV
Cytochrome P450 3A4, sequence (P08684 whole entry): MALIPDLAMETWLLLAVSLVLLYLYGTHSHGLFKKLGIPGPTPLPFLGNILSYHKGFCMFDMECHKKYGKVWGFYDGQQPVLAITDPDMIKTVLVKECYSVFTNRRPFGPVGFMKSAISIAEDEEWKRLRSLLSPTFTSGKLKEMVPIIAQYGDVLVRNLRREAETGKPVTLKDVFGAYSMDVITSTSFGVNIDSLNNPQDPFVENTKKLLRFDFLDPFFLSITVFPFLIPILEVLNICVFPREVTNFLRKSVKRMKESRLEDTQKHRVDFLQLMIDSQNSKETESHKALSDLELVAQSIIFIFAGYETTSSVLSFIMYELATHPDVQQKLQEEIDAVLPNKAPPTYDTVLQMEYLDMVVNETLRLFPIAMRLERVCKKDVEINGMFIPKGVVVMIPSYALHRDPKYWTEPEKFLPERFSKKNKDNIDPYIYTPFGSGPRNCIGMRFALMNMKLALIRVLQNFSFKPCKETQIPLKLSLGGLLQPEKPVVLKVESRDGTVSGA
Thymidylate kinase, sequence (P23919 whole entry): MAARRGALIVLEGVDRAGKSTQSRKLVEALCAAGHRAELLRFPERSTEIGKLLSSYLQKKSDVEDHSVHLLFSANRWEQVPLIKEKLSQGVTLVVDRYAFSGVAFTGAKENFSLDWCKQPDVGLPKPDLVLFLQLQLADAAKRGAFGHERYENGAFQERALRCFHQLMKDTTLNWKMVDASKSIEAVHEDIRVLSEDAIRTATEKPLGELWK

Structure (SMILES): COc1ccc(S(=O)(=O)N2CCC[C@H](n3cc(C)c(=O)[nH]c3=O)C2)cc1Oc1cccc(Cl)c1
MIC (Streptococcus pneumoniae): 2 µg/mL (≈ 3.95 µM)
IC50 [1]: 358 nM
MIC (Staphylococcus aureus [2]): > 64 µg/mL
IC50 [3]: 6 nM
MIC (Staphylococcus aureus [4]): 16 µg/mL (≈ 31.6 µM)

Structure (SMILES): Cc1cn([C@H]2CCCN(S(=O)(=O)c3cccc(Oc4ccc(Cl)c(Cl)c4)c3)C2)c(=O)[nH]c1=O
MIC (Streptococcus pneumoniae): 4 µg/mL (≈ 7.84 µM)
logD [5]: > 3.5
IC50 [1]: 2780 nM
MIC (Staphylococcus aureus [2]): 4 µg/mL (≈ 7.84 µM)
IC50 [3]: 292 nM
MIC (Staphylococcus aureus [4]): 4 µg/mL (≈ 7.84 µM)

Structure (SMILES): Cc1cn([C@H]2CCCN(S(=O)(=O)c3ccc(C#N)c(Oc4cccc(Cl)c4)c3)C2)c(=O)[nH]c1=O
MIC (Streptococcus pneumoniae): 2 µg/mL (≈ 3.99 µM)
logD [5]: 1
IC50 [1]: 530 nM
MIC (Staphylococcus aureus [2]): > 64 µg/mL
IC50 [3]: 23 nM
MIC (Staphylococcus aureus [4]): > 64 µg/mL

Structure (SMILES): Cc1cn([C@H]2CCCN(S(=O)(=O)c3ccc(O)c(Oc4cccc(Cl)c4)c3)C2)c(=O)[nH]c1=O
MIC [6]: > 64 µg/mL
MIC (Pseudomonas aeruginosa): > 64 µg/mL
IC50 [7]: 4500 nM
IC50 (Cytochrome P450 2C19): > 20000 nM
hepatocyte CLint [8]: 45 µL/min/1e6 cells
IC50 [9]: 27000 nM
MIC (Streptococcus agalactiae): 0.5 µg/mL (≈ 1.02 µM)
MIC [10]: 2 µg/mL (≈ 4.07 µM)
solubility thermodynamic [11]: 193 µM (≈ 94.9 µg/mL)
IC50 (Cytochrome P450 2C9): > 20000 nM
MIC (Streptococcus pneumoniae): 0.03 µg/mL (≈ 0.061 µM)
MIC90 (Streptococcus pneumoniae): 0.06 µg/mL (≈ 0.122 µM)
MIC [12]: 0.016 µg/mL (≈ 0.0325 µM)
IC50 (Cytochrome P450 3A4): > 20000 nM
logD [5]: 2.1
IC50 (Cytochrome P450 2D6): > 20000 nM
MIC [13]: 0.03 µg/mL (≈ 0.061 µM)
MIC (Klebsiella pneumoniae): > 64 µg/mL
IC50 (Cytochrome P450 1A2): > 20000 nM
MIC (Haemophilus influenzae): > 64 µg/mL
MIC90 (Streptococcus pyogenes): 0.5 µg/mL (≈ 1.02 µM)
MIC (Enterococcus faecium): 0.13 µg/mL (≈ 0.264 µM)
MIC (Staphylococcus aureus [2]): 0.25 µg/mL (≈ 0.508 µM)
MCC [14]: > 64 µg/mL
MIC (Enterococcus faecalis): 0.5 µg/mL (≈ 1.02 µM)
microsomal CLint [15]: 27 µL/min/mg
Fu (Plasma): 1%
MIC (Escherichia coli): > 64 µg/mL
IC50 (Thymidylate kinase): > 200000 nM
MIC (Staphylococcus aureus [4]): 0.5 µg/mL (≈ 1.02 µM)
MIC90 (Staphylococcus aureus [4]): 0.5 µg/mL (≈ 1.02 µM)
MIC (Candida albicans): > 64 µg/mL

Structure (SMILES): Cc1cn([C@H]2CCCN(S(=O)(=O)c3ccc(CO)c(Oc4cccc(Cl)c4)c3)C2)c(=O)[nH]c1=O
MIC (Streptococcus pneumoniae): 2 µg/mL (≈ 3.95 µM)
IC50 [1]: 610 nM
MIC (Staphylococcus aureus [2]): 32 µg/mL (≈ 63.2 µM)
IC50 [3]: 28 nM
MIC (Staphylococcus aureus [4]): 64 µg/mL (≈ 126 µM)

Structure (SMILES): Cc1cccc(Oc2cc(S(=O)(=O)N3CCC[C@H](n4cc(C)c(=O)[nH]c4=O)C3)ccc2C(=O)O)c1
MIC (Streptococcus pneumoniae): 16 µg/mL (≈ 32 µM)
logD [5]: -1.6
MIC (Staphylococcus aureus [2]): > 64 µg/mL
IC50 [3]: 6 nM
MIC (Staphylococcus aureus [4]): > 64 µg/mL

MIC (Streptococcus pneumoniae): > 64 µg/mL
IC50 [1]: 81500 nM
MIC (Staphylococcus aureus [2]): > 64 µg/mL
IC50 [3]: 20900 nM
Structure (SMILES): Cc1cn([C@H]2CCCN(S(=O)(=O)c3cccc(Oc4ccccc4)c3)C2)c(=O)[nH]c1=O

Structure (SMILES): Cc1cn([C@H]2CCCN(S(=O)(=O)c3ccc(C(N)=O)c(Oc4cccc(Cl)c4)c3)C2)c(=O)[nH]c1=O
MIC (Streptococcus pneumoniae): 2 µg/mL (≈ 3.85 µM)
logD [5]: 2
IC50 [1]: 784 nM
MIC (Staphylococcus aureus [2]): > 64 µg/mL
IC50 [3]: 10 nM
MIC (Staphylococcus aureus [4]): > 64 µg/mL

Structure (SMILES): Cc1cn([C@H]2CCCN(S(=O)(=O)c3ccc(O)c(Oc4ccccc4)c3)C2)c(=O)[nH]c1=O
MIC (Streptococcus pneumoniae): 0.5 µg/mL (≈ 1.09 µM)
logD [5]: 1.5
IC50 [1]: 255 nM
MIC (Staphylococcus aureus [2]): 16 µg/mL (≈ 35 µM)
IC50 [3]: 14 nM
MIC (Staphylococcus aureus [4]): 16 µg/mL (≈ 35 µM)

Structure (SMILES): Cc1cc(Oc2cc(S(=O)(=O)N3CCC[C@H](n4cc(C)c(=O)[nH]c4=O)C3)ccc2O)ccc1Cl
MIC (Streptococcus pneumoniae): 0.25 µg/mL (≈ 0.494 µM)
logD [5]: 2.4
IC50 [1]: 3 nM
MIC (Staphylococcus aureus [2]): 1 µg/mL (≈ 1.98 µM)
IC50 [3]: 18 nM
MIC (Staphylococcus aureus [4]): 0.5 µg/mL (≈ 0.988 µM)

Structure (SMILES): Cc1cn([C@H]2CCCN(S(=O)(=O)c3ccc(O)c(Oc4cc(F)cc(Cl)c4)c3)C2)c(=O)[nH]c1=O
MIC (Streptococcus pneumoniae): 0.05 µg/mL (≈ 0.0981 µM)
IC50 [1]: 12 nM
MIC (Staphylococcus aureus [2]): 1 µg/mL (≈ 1.96 µM)
IC50 [3]: 0.7 nM
MIC (Staphylococcus aureus [4]): 1 µg/mL (≈ 1.96 µM)

Structure (SMILES): C[C@H]1COc2c(N3CCN(C)CC3)c(F)cc3c(=O)c(C(=O)O)cn1c23.C[C@H]1COc2c(N3CCN(C)CC3)c(F)cc3c(=O)c(C(=O)O)cn1c23.O [LEVOFLOXACIN]
MIC (Streptococcus pyogenes): 0.25 µg/mL
MIC90 (Staphylococcus aureus [4]): 16 µg/mL

Structure (SMILES): Cc1cn([C@H]2CCCN(S(=O)(=O)c3ccc(C(=O)O)c(Oc4ccc(Cl)c(Cl)c4)c3)C2)c(=O)[nH]c1=O
MIC (Streptococcus pneumoniae): 4 µg/mL (≈ 7.21 µM)
logD [5]: -0.9
IC50 [1]: 23 nM
MIC (Staphylococcus aureus [2]): > 64 µg/mL
IC50 [3]: < 6 nM
MIC (Staphylococcus aureus [4]): > 64 µg/mL

Structure (SMILES): Cc1cn([C@H]2CCCN(S(=O)(=O)c3ccc(O)c(Oc4cccc(Br)c4)c3)C2)c(=O)[nH]c1=O
MIC (Streptococcus pneumoniae): 0.1 µg/mL (≈ 0.186 µM)
logD [5]: 2.3
IC50 [1]: 2 nM
MIC (Staphylococcus aureus [2]): 1 µg/mL (≈ 1.86 µM)
IC50 [3]: 0.7 nM
MIC (Staphylococcus aureus [4]): 0.5 µg/mL (≈ 0.932 µM)

Structure (SMILES): Cc1cn([C@H]2CCCN(S(=O)(=O)c3ccc(O)c(Oc4cccc(C(F)(F)F)c4)c3)C2)c(=O)[nH]c1=O
MIC (Streptococcus pneumoniae): 0.1 µg/mL (≈ 0.19 µM)
logD [5]: 2.3
IC50 [1]: 64 nM
MIC (Staphylococcus aureus [2]): 2 µg/mL (≈ 3.81 µM)
IC50 [3]: 3 nM
MIC (Staphylococcus aureus [4]): 2 µg/mL (≈ 3.81 µM)

Structure (SMILES): Cc1cn([C@H]2CCCN(S(=O)(=O)c3ccc(O)c(Oc4cccc(F)c4)c3)C2)c(=O)[nH]c1=O
MIC (Streptococcus pneumoniae): 0.25 µg/mL (≈ 0.526 µM)
logD [5]: 1.6
IC50 [1]: 57 nM
MIC (Staphylococcus aureus [2]): 16 µg/mL (≈ 33.6 µM)
IC50 [3]: 4 nM
MIC (Staphylococcus aureus [4]): 16 µg/mL (≈ 33.6 µM)

Structure (SMILES): Cc1cn([C@H]2CCCN(S(=O)(=O)c3ccc(O)c(Oc4ccc(Cl)cc4)c3)C2)c(=O)[nH]c1=O
MIC (Streptococcus pneumoniae): 0.5 µg/mL (≈ 1.02 µM)
logD [5]: 2.1
IC50 [1]: 18 nM
MIC (Staphylococcus aureus [2]): 1 µg/mL (≈ 2.03 µM)
IC50 [3]: 8 nM
MIC (Staphylococcus aureus [4]): 2 µg/mL (≈ 4.07 µM)

Structure (SMILES): Cc1cn([C@H]2CCCN(S(=O)(=O)c3ccc(C(=O)O)c(Oc4cccc(Cl)c4)c3)C2)c(=O)[nH]c1=O
MIC (Streptococcus pneumoniae): 2 µg/mL (≈ 3.85 µM)
logD [5]: -1.3
IC50 [1]: 2 nM
MIC (Staphylococcus aureus [2]): > 64 µg/mL
IC50 [3]: 1 nM
MIC (Staphylococcus aureus [4]): > 64 µg/mL
